Data: patent US9353152B2, “Induction of the mitochondrial permeability transition” (NewSouth Innovations Pty Limited, priority 2002, dated 2016)

Tests used:
BAE cells [1] = assay: Cell viability assay, attached cells (methylene blue), proliferating or growth-quiescent cells; type: cell-based, bovine
Description: BAE or HMEC-1 cells were seeded at a density of 10^4 cells per cell into 96 well plates and allowed to adhere overnight and then treated as indicated.

BAE cells [2] = assay: Mitochondrial membrane potential (JC-1) and apoptosis (annexin V) by flow cytometry; type: cell-based, bovine; details: 10% serum, 48 h
Description: (§1) For measurements of superoxide levels with dihydroethidine, mitochondrial membrane potential with JC-1, mitochondrial mass with nonyl acridine orange, and apoptosis with annexin V, proliferating or growth-quiescent BAE cells were treated for 24 or 48 h with GSAO in six-well culture plates, then detached with trypsin/EDTA, washed once, and resuspended at 2×10^6 cells per mL in serum-free medium. Cells were then incubated for 15 min at room temperature with dihydroethidine (5 μM, Molecular Probes) or 30 min at room temperature with JC-1 (0.5 μg·mL^−1, Molecular Probes), annexin V-FITC (50 μl·mL^−1) (Pharmingen, La Jolla, Calif., USA), or acridine orange 10-nonyl bromide (5 μM, Molecular Probes). Cells were then washed once, resuspended in 0.5 mL serum-free medium, transferred to ice, and fluorescence was quantitated immediately by flow cytometry.

BAE cells [3] = assay: Mitochondrial mass (nonyl acridine orange uptake); type: cell-based, bovine; details: GSAO treatment 24 h, proliferating and growth-quiescent cells
Description: as §1

Rat liver mitochondria = type: biochemical; details: 100 μM GSAO, 0-60 min

N[C@@H](CCC(=O)N[C@@H](CSCC(=O)Nc1ccc([As]=O)cc1)C(=O)NCC(=O)O)C(=O)O (stereo partly shown) [GSAO, 4-(N—(S-glutathionylacetyl)amino)-phenylarsenoxide]
effect on viability of growth-quiescent BAE cells (BAE cells [1]): little effect | mitochondrial depolarisation (JC-1) and apoptosis (annexin V binding) (BAE cells [2]): triggered mitochondrial depolarisation and induced apoptosis | mitochondrial mass (BAE cells [3]): unchanged | release of Cytochrome C into the medium (Rat liver mitochondria): triggered time-dependent release
